# Test results as given in US20090148850A1, “Methods for identifying modulators of P2RY14” (priority 2007, published 2009).
# Legend:
# P2RY14 [1] = biological target: T1, P2RY14 (Homo sapiens, UniProt Q15391); design: host or cells: yeast and HEK-293 cells (Chambers et al., J. Biol. Chem. 275: 10767-10771 (2000)); details: yeast and mammalian cells, Chambers et al. 2000; cited from earlier work
# T1 sequence (Q15391 1-338): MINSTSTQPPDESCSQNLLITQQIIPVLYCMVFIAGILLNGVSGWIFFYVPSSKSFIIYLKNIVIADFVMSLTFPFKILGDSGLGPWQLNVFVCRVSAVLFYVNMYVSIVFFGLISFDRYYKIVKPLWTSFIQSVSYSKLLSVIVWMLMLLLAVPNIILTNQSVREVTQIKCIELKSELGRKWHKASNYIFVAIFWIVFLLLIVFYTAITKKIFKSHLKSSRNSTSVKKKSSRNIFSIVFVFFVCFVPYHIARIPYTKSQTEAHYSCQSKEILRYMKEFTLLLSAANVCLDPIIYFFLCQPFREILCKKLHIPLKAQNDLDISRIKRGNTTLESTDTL
# P2RY14 [2] = biological target: T1, P2RY14; assay: CellKey System live cell functional assay, human P2RY14; format: cell-based; design: expressed in transfected cells; details: HEK cells expressing human P2RY14 and Gqi5
# Description: (§1) The Cellkey System™ (MDS Sciex), a novel, live cell, label-free, real-time technology, was used to examine P2RY14 activation following agonist stimulation. The CellKey System™ is based on cellular dielectric spectroscopy (CDS) and monitors changes in impedance of the applied electrical current through the cell monolayer upon receptor activation.
# (§2) On the following day, growth medium was removed from the cell monolayer and replaced with 135 μl of HBSS pH 7.4 containing 20 mM Hepes for a 30 minutes pre-incubation period at room temperature. Baseline measurements were made for 5 minutes at 28° C. prior to ligand addition. For agonist assays, 15 μl of 10× agonist diluted in HBSS pH 7.4 containing 20 mM HEPES was added to the cell monolayer simultaneously using the 96 multichannel head from the CellKey™ System. Cellular response was monitored for 10 minutes to assess cellular response after ligand addition.
# mouse P2RY14 [3] = biological target: T2, mouse P2RY14 (Mus musculus, UniProt Q9ESG6); assay: CellKey System live cell functional assay, mouse P2RY14; format: cell-based; details: HEK cells expressing mouse P2RY14 and Gqi5
# T2 construct: expressed in transfected cells
# T2 sequence (Q9ESG6 1-338): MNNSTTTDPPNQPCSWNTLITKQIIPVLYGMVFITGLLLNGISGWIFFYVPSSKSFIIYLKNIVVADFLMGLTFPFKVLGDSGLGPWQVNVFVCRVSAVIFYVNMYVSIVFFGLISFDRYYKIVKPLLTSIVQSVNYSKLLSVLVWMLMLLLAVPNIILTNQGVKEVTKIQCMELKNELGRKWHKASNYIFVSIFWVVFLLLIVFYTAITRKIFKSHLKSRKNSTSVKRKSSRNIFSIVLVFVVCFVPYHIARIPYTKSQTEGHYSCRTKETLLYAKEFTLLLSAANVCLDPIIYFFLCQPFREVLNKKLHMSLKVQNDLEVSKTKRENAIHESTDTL
# Description: as §1, §2
# [4] = test system: simian (chimpanzee) P2RY14; assay: FLIPR whole cell Ca2+ agonist assay, HEK cells expressing simian (chimpanzee) P2RY14 and Gqi5; format: cell-based
# From the text: (§3) Stable HEK clonal cell lines expressing P2RY14 and the chimeric G protein Gqi5 were constructed. The chimeric Gqi5 forces the coupling of P2RY14 through the Gq (calcium) pathway and allows for monitoring of calcium signaling using a calcium binding fluorescent dye and a FLIPR (fluorometric imaging plate reader, MDS Sciex). Vector pCEP4 comprising the chimeric Gqi5 was obtained from Molecular Devices, Sunnyvale, Calif. (Cat. No. RD-PGQI5).
# The simian (chimpanzee) P2RY14 nucleic acid fragment was synthesized based upon the Ensembl Gene ID ENSPTRG00000030093 by Bio S & T, Montreal, Quebec, Canada, to be flanked with KpnI and NotI restriction enzyme sites. […] The DNA fragment was digested with KpnI and NotI and then cloned into a pcDEF3 vector previously digested with KpnI and NotI to place the DNA fragment in the proper orientation downstream of the human EF-1a promoter. The nucleic acid encoding the simian P2RY14 was under the control of the human EF-1a promoter.
# (§4) Cells were grown in DMEM medium containing 25 mM HEPES, pH 7.4 and 10% FBS, 50 units/ml penicillin/50 μg/ml streptomycin, 2 mM glutamine and 1 mM sodium pyruvate at 37° C. in humidified air containing 5% CO2. Two days post-transfection, cells were grown under selection in the DMEM medium as indicated above and supplemented with 200 μg/ml Hygromycin B and 250 μg/ml geneticin.
# (§5) Cells were incubated overnight at 37° C. and 5% CO2 to form a monolayer. On the following day, 30 μl of fluorescent no-wash dye was added to the cell monolayer and the plate was incubated for 60 minutes at 37° C., 5% CO2.
# (§6) For agonist assays, 6.12 μl of 10× agonist solution was added to the cell/dye incubation and Ca^2+ signaling was monitored by FLIPR. For antagonist assays, 250 nl of compound in 100% DMSO was added to cell/dye mixture; following a 20 minute incubation at room temperature, 6.12 μl of 10× agonist solution at EC80 in HBSS containing 20 mM Hepes was added to cells and Ca^2+ signaling was monitored by FLIPR. Quantitation of the % stimulation or inhibition of Ca^2+ signaling by agonist or antagonist, respectively, was calculated using the Max-Min fluorescent signal detected.
# [5] = test system: simian (chimpanzee) P2RY14; assay: CellKey System live cell functional assay, simian P2RY14; format: cell-based; details: HEK cells expressing simian P2RY14 and Gqi5
# Description: as §1, §2
# mouse P2RY14 [6] = biological target: T2, mouse P2RY14; assay: FLIPR whole cell Ca2+ agonist assay, HEK cells expressing mouse P2RY14 and Gqi5; format: cell-based
# From the text: as §3
# The nucleic acid encoding the mouse P2RY14 was under the control of the CMV promoter.
# as §4, §5, §6
# P2RY14 [7] = biological target: T1, P2RY14; assay: FLIPR whole cell Ca2+ agonist assay, HEK cells expressing human P2RY14 and Gqi5; format: cell-based; design: expressed in transfected cells; details: for activation of P2RY14 (Ca2+ signaling): HEK cells expressing human P2RY14 and Gqi5, FLIPR
# From the text: as §3
# The human P2RY14 was PCR amplified from the I.M.A.G.E. clone obtained from Invitrogen, Carlsbad, Calif. […] The codon encoding glutamate at position 54 in the wild-type human P2RY14 was changed to code for lysine. […] The PCR reaction was done in two parts. In the first part, the reaction was 5 cycles at 94° C. for 30 seconds, 65° C. for 30 seconds, and 72° C. for 90 seconds. In the second part, the reaction was 25 cycles at 94° C. for 30 seconds, 70° C. for 30 seconds, 72° C. for 90 seconds. The last cycle was followed by 7 minutes at 72° C. The PCR amplified human P2RY14 was digested with KpnI and NotI and cloned into a pcDNA3.1 (+) vector previously digested with KpnI and NotI to place the DNA fragment in the proper orientation downstream of the CMV promoter. The nucleic acid encoding the human P2RY14 was under the control of the CMV promoter.
# as §4, §5, §6
# [8] = test system: HEK cells not expressing P2RY14; assay: FLIPR Ca2+ release in HEK cells not expressing P2RY14 (specificity); format: cell-based
# simian P2RY14 = assay: Membrane filtration binding assay, simian P2RY14; design: species or system chimpanzee; details: HEK cells expressing simian P2RY14, membrane filtration
# Description: Membrane preparations were made by N2 cavitation using a Parr unit. […] Cell were Dounce homogenized (size B, 10 strokes) and then added to the cavitation unit. Pressure was adjusted to 800 psi and cells were left under pressure for 30 minutes. Broken cells were released drop by drop and spun at 1000 g for 10 minutes. Supernatent was spun at 160,000 g (rotor type 60 Ti, 40000 rpm for 30 min). Pellet was resuspended in 10 mM HEPES/KOH pH 7.4, 1 mM EDTA in ⅕ the original volume, dounce homogenized (size A, 10 strokes), aliquoted, and frozen at −80° C.
# Binding assays were performed in 10 mM Hepes pH 7.4 (KOH), 5 mM MnCl2, 5 mM MgCl2 buffer. Membranes (10 μg/well for human P2RY14 and 30 μg/well for simian P2RY14) were incubated with 10 nM [5.6-^3H] Uridine 5′-triphosphate (UTP), ammonium salt from Amersham Biosciences (# TRK412) in presence of compounds diluted in DMSO (2% final in assay), in a total volume of 100 μl. 50 minutes (human P2RY14) or 60 minutes (simian) P2RY14) incubations were performed at room temperature with shaking. […] To examine the stability of [^3H]-UTP in the membrane filtration binding assay, 100 ul aliquots of the reaction mixture were extracted at 2, 10, 20, 40, 60 and 90 minutes with 100 uL of cold 80 mM EDTA solution (pH 8) and 200 uL of cold Acetonitrile. After mixing, proteins were precipitated by centrifugation at 13000 rpm for 10 minutes at 4° C. […] After 0.5 min at 10:90 50 mM KH2PO4/750 mM KH2PO4, a gradient was applied in order to increase to 100% 750 mM KH2PO4 at 5 min, after which this composition was maintained for an additional 3 min. Samples were kept at 4° C. prior to HPLC analysis
Compound,activation of P2RY14 (P2RY14 [1]),"P2RY14 signaling (impedance, CellKey) (P2RY14 [2])","P2RY14 signaling (impedance, CellKey) (mouse P2RY14 [3])",activation of P2RY14 (Ca2+ signaling) [4],"P2RY14 signaling (impedance, CellKey) [5]",activation of P2RY14 (Ca2+ signaling) (mouse P2RY14 [6]),activation of P2RY14 (Ca2+ signaling) (P2RY14 [7]),Ca2+ release in cells not expressing P2RY14 [8],Ca2+ response as compared to UDP-glucose and UMP (P2RY14 [7]; HEK cells expressing human P2RY14),specific binding window as radioligand (simian P2RY14)
Nc1ncnc2c1ncn2[C@@H]1O[C@H](COP(=O)(O)OP(=O)(O)O[C@H]2O[C@H](CO)[C@@H](O)[C@H](O)[C@H]2O)[C@@H](O)[C@H]1O [ADP-glucose],unable to activate,–,–,–,–,–,–,–,–,–
CC(=O)N[C@H]1[C@@H](OP(=O)(O)OP(=O)(O)OC[C@H]2O[C@@H](n3ccc(=O)[nH]c3=O)[C@H](O)[C@@H]2O)O[C@H](CO)[C@@H](O)[C@@H]1O [UDP-N-acetylglucosamine],able to activate,mediated signaling,mediated signaling,activated,mediated signaling,activated,activated,–,–,–
O=C(O)[C@H]1O[C@H](OP(=O)(O)OP(=O)(O)OC[C@H]2O[C@@H](n3ccc(=O)[nH]c3=O)[C@H](O)[C@@H]2O)[C@H](O)[C@@H](O)[C@@H]1O [UDP-glucuronic acid],able to activate,mediated signaling,mediated signaling,activated,mediated signaling,activated,activated,–,–,–
"O=c1ccn([C@@H]2O[C@H](COP(=O)(O)OP(=O)(O)OP(=O)(O)O)[C@@H](O)[C@H]2O)c(=O)[nH]1 [UTP, Uridine 5′-triphosphate]",unable to activate,mediated signaling,mediated signaling,activated,mediated signaling,activated,activated,able to stimulate Ca^2+ release in a dose-dependent manner,much larger Ca^2+ response,–
O=P(O)(O)OP(=O)(O)OC[C@H]1O[C@@H](n2cnc3c(O)ncnc32)[C@H](O)[C@@H]1O [inosine diphosphate],–,–,–,activated,–,activated,activated,–,–,–
[^3H]-UMP,–,–,–,–,–,–,–,–,–,no specific binding window
